{"source": "patent US20110160399A1", "about": "“HISTONE MODIFICATION INHIBITOR SPECIFIC TO TARGET GENE” (NIHON UNIVERSITY, priority 2008, published 2011)", "type_in_all_cases": "cell-based, human", "key": {"[1]": {"system": "p16 gene expression (p16 RNA)", "assay": "Real-time RT-PCR of p16 gene expression in HeLa cells", "conditions": "48 hours, even at 10 nM, GAPDH internal standard, FIG. 6", "procedure": "To verify the effect on p16 gene expression, real-time RT-PCR was performed. HeLa cells seeded at 1.5×10^4 cells per well in 24-well plates were cultured for 48 hours in the presence of various concentrations of the polyamides, and RNA was then collected by ISOGEN (Nippon Gene Co., Ltd., Tokyo, Japan). The procedures used followed the manufacturer's instructions. The isolated total RNA was measured for its concentration with Nanodrop (Nanoprop, USA) and used for cDNA synthesis with a Primescript RT reagent kit (TAKARA BIO, Shiga, Japan). The prepared cDNA was confirmed for the expression level of p16 RNA in a Thermal Cycler Dice Real-time System TP-800 (TAKARA BIO, Shiga, Japan) with SYBR premix EX Tag (TAKARA BIO, Shiga, Japan). In this case, the following primers were used in PCR reaction for p16 amplification.\nLikewise, for amplification of human endogenous glyceraldehyde-3-phosphate dehydrogenase (GAPDH) used as an internal standard, the following primers were used in PCR reaction."}, "p16 protein expression": {"system": "p16 protein expression", "assay": "Western blotting of p16 protein in HeLa cells", "conditions": "48 hours, various concentrations, α-tubulin internal standard, FIG. 7", "procedure": "After being cultured for 48 hours in the presence of various concentrations of polyamide, HeLa cells were harvested and lysed again in an extraction buffer containing 20 mM Tris-HCl (pH 7.5), 150 mM NaCl, 1 mM EDTA, 1% Nonidet P-40 and Complete Protease Inhibitor Cocktail Tablets (Roche), and then centrifuged at 13,500×g at 4° C. for 15 minutes. The resulting supernatants were supplemented with a sample buffer solution (2ME+, ×4) (Wako Pure Chemical Industries, Ltd., Japan) to give samples. These samples were developed on a 15% polyacrylamide gel, electrically transferred to a polyvinylidene difluoride membrane (Millipore Corporation, USA), and then blocked with 5% skimmed milk for the purpose of preventing non-specific binding. The primary antibodies used for target protein detection were purified anti-human p16INK4 monoclonal antibody (BD bioscience) for p16 and α-tubulin (TU-02) (SANTA CRUZ) for α-tubulin used as an internal standard. […] After antibody labeling, the membrane was developed with Immobilon western (MILLIPORE) and then detected by Las-4000 mini (Fuji Photo Film Co., Ltd., Japan). The area and intensity of each band were determined by Multigauge (Fuji Photo Film Co., Ltd., Japan) and quantified in comparison with a 50% DMSO-treated control, which was set to 100%."}, "[2]": {"system": "acetylation of histone H3 lysine 9 in the p16 genomic region", "assay": "Genomic region-specific acetylation analysis (ChIP, anti-histone H3K9 acetyl antibody), p16 genomic region", "conditions": "HeLa cells, 150 nM, 7 days; FIG. 10", "procedure": "(§1) In a 10% fetal bovine serum-containing DMEM medium prepared to contain the synthesized compound (SAHA+p16 PIP or SAHA+non-targeting PIP) or SAHA at a final concentration of 150 nM, HeLa cells were cultured at 37° C. in the presence of 5% CO2 for 7 days. After culture, 5×10^6 to 1×10^7 confluent cells were harvested in 100 mm diameter cell culture dishes (Corning 430167) and then subjected to chromatin immunoprecipitation assay with a MILIPORE 17-295 Chromatin Immunoprecipitation (ChIP) assay kit.\n(§2) The detailed procedures used are as follows. To the harvested cells cultured for 7 days, formalin was added at a final concentration of 1% and incubated at 37° C. for 10 minutes to fix the cells, whereby proteins and DNAs were crosslinked within the cells. Then, glycine was added at a final concentration of 0.25 M and the supernatant was removed, followed by washing the cell layer. Then, the cell layer was treated with 220 μl lysis buffer and the cell lysate was collected with a scraper. […] Real-time RT-PCR.” More specifically, the purified DNA was quantitatively analyzed with SYBR premix EX Taq (TAKARA BIO, Shiga, Japan) in a Thermal Cycler Dice Real-time System TP-800 (TAKARA BIO, Shiga, Japan). […]"}, "[3]": {"system": "acetylation of histone H3 lysine 9 in the genomic region of the LARP1 gene", "assay": "Genomic region-specific acetylation analysis (ChIP, anti-histone H3K9 acetyl antibody), LARP1 gene region", "conditions": "HeLa cells, 150 nM, 7 days; FIG. 10", "procedure": "as §1, §2"}}}
{"smiles": "CN(C)CCCNC(=O)CCNC(=O)c1cc(NC(=O)c2nc(NC(=O)c3nc(NC(=O)CCNC(=O)c4cc(NC(=O)c5nc(NC(=O)CCCNC(=O)c6cc(NC(=O)c7nc(NC(=O)CCNC(=O)c8cc(NC(=O)c9cc(NC(=O)c%10nc(NC(=O)CCNC(=O)CCNC(=O)c%11ccc(NC(=O)CCCCCCC(=O)NO)cc%11)cn%10C)cn9C)cn8C)cn7C)cn6C)cn5C)cn4C)cn3C)cn2C)cn1C", "note": "[SAHA+p16 PIP, SAHA-ββImPyPyβImPyγImPyβImImPyβDp]", "values": [{"measurement": "expression level of p16 at the transcription level", "setting": "[1]", "value": "significant increase"}, {"measurement": "expression of p16 at the protein level", "setting": "p16 protein expression", "value": "enhanced the expression"}, {"measurement": "acetylation of histone H3 lysine 9 in the p16 genomic region", "setting": "[2]", "value": "enhanced acetylation"}, {"measurement": "enhancement of histone H3 lysine 9 acetylation in the p16 genomic region compared to SAHA alone or SAHA+non-targeting PIP", "setting": "[2]", "value": "about 2 fold"}, {"measurement": "acetylation of histone H3 lysine 9 in the genomic region of the LARP1 gene", "setting": "[3]", "value": "enhanced acetylation"}, {"measurement": "enhancement of histone H3 lysine 9 acetylation in the LARP1 genomic region compared to SAHA alone or SAHA+non-targeting PIP", "setting": "[3]", "value": "about 2.5 fold"}]}
